Columns and labels:
human DRG neurons = assay: Whole-cell patch clamp, inward currents in human DRG neurons; type: cell-based; conditions: A967079 10 μM
Description: Non-diseased human DRGs were obtained from donors through National Disease Research Interchange (NDRI) with permission of exemption from the Duke University Institutional Review Board (IRB). Postmortem L3-L5 DRGs were dissected from 4 donors and delivered in ice cold culture medium to the laboratory at Duke University within 24-72 hr of the donor's death. Upon the delivery, DRGs were rapidly dissected from nerve roots and minced in a calcium-free HBSS (GIBCO). Human DRG cultures were prepared as previously reported (Chang et al., Neurosci. Bull. 2018, 34, 4-12; Han et al., Neuron 2016, 92, 1279-1293). DRGs were digested at 37° C. in a humidified CO2 incubator for 120 min with collagenase Type II (Worthington, 290 units/mg, 12 mg/mL final concentration) and dispase II (Roche, 1 unit/mg, 20 mg/mL) in PBS with 10 mM HEPES, pH adjusted to 7.4 with NaOH. DRGs were mechanically dissociated using fire-polished pipettes, filtered through a 100 μm nylon mesh and centrifuged (500 g for 5 min). The pellet was resuspended, plated on 0.5 mg/mL poly-D-lysine-coated glass coverslips, and grown in Neurobasal medium supplemented with 10% FBS, 2% B-27 supplement, and 1% penicillin/streptomycin. Whole-cell patch-clamp recordings in small (<[…]) human DRG neurons were conducted at room temperature using patch pipettes with resistances of 3-4 MΩ.
Whole-Cell Patch Clamp Recordings in HEK293 Cells, CHO Cells, and DRG Neurons. Whole-cell patch clamp recordings were performed at room temperature using an Axopatch-200B amplifier (Axon Instruments) with a Digidata 1440B (Axon Instruments). In this study, we only examined small-diameter mouse DRG neurons (<25 μM) and small-diameter human DRG neurons (<55 μM). The patch pipettes were pulled from borosilicate capillaries (World Precision Instruments) using a P-97 Flaming/Brown micropipette puller (Sutter Instrument). Pipette resistance was 4-6 MΩ for whole-cell and outside-out recording. […]

mice = assay: Acute pruritus induced by intradermal pruritogens, effect of peptides; type: in vivo, mouse; conditions: peptide 2 mM
Description: Behavioral Assessment for Scratching (Itch) and Wiping (Pain). Mice were shaved on the cheek or nape after a brief anesthesia with isoflurane. Before experiments, mice were habituated in small plastic chambers (14×18×12 cm) daily for two days. The room temperature and humidity remained stable for all the experiments. […] After the injection, the number of scratches in 60 min was counted. A scratch was counted when a mouse lifted its hind paw to scratch the shaved region and returned the paw to the floor or to the mouth. A bout of wiping was defined as a continuous wiping movement with a forepaw directing at the area of the injection area (Shimada and LaMotte, Pain 2008, 139, 681-687). Scratching and wiping behavior was videoed for 30 min or 60 min using Sony HDR-CX610 camera. The video was subsequently played back offline and the numbers of scratches and wipes were quantified in a blinded manner.

TRPV1 = biological target: T1, TRPV1 (Mus musculus, UniProt Q704Y3); assay: Whole-cell patch clamp in CHO cells transfected with mouse Trpv1 cDNA; type: cell-based; conditions: miR-711 10 μM; capsaicin 50 nM
T1 construct: expressed in transfected cells; host or cells: CHO cells (ATCC CRL-9096), plasmid pcDNA3.1-mTrpv1, a gift from Korea University
T1 sequence (Q704Y3 whole entry): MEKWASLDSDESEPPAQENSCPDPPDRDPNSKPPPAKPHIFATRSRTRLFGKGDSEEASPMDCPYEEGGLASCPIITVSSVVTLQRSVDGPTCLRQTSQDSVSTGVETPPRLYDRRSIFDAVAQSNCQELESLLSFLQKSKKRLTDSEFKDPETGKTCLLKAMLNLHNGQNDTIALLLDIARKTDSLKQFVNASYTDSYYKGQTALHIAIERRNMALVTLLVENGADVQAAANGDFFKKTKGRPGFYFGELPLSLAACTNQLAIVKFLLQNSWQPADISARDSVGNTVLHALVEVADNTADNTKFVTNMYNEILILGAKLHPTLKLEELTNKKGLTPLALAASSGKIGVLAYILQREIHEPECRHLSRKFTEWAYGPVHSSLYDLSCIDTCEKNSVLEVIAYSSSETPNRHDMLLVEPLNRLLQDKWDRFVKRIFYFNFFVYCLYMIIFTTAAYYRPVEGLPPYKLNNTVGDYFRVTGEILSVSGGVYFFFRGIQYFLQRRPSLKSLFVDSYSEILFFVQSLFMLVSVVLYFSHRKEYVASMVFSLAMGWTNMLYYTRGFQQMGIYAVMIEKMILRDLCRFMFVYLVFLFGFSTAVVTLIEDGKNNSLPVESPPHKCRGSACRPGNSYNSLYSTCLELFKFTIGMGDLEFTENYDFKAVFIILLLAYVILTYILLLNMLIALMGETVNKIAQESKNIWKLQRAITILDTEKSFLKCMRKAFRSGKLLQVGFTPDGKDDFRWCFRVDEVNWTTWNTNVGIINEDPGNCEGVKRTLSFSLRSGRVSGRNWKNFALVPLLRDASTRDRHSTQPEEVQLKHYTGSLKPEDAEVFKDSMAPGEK
Description: Constructs. The cDNAs of mouse pcDNA3.1-Trpa1, pcDNA3.1-Trpv1, pcDNA3.1-Trpv2, pcDNA3.1-Trpv3, and pcDNA3.1-Trpv4 were kindly provided Dr. Sun Work Hwang from Korea University. Mouse Trpa1 cDNA was subcloned into pCGN-HA backbone (Addgene) using In-Fusion HD Cloning Kit (Clontech Laboratories, CA). Q5 Site-Directed Mutagenesis Kit was used to generate mTrpa1 mutant (M1-M13) based on pCGN-mTrpa1.
Cell Culture and Transfection. CD4^+ Myla cell line was cultured in RPMI 1640 media (GIBCO), supplemented with 2 mM Glutamine (GIBCO), 100 U/mL IL-2 (Sigma), 100 U/mL IL-4 (Sigma), and 10% human AB serum (Sigma). HuT 102 cell line was cultured in RPMI 1640 supplemented with pyruvate, HEPES, and 10% (v/v) fetal bovine serum (HyClone). HEK293-hTRPA1 stable cell line was cultured in MEM (GIBCO) containing 2 mM Glutamine, 4 μg/mL Blasticidin, 10% FBS (v/v). B16 and CHO cells were cultured in high glucose (4.5 g/L) Dulbecco's Modified Eagle's Medium (GIBCO) containing 10% (v/v) fetal bovine serum (GIBCO). Culture media were supplemented with 50 units/mL of penicillin and 50 μg/mL streptomycin, and cultures were maintained with 5% CO2 in 37° C. incubator. Transfection (2 μg cDNA) was performed with Lipofectamine™ 2000 Reagent (Invitrogen) at 80% confluency and the transfected cells were cultured in the same media for 48 hr before electrophysiological and biochemical studies. […]

Compound: CCC(=N\O)/C(C)=C/c1ccc(F)cc1 [A967079, (1E,3E)-1-(4-Fluorophenyl)-2-methyl-1-pentene-3-one oxime]
- block of miRNA-evoked inward currents in human DRG neurons (human DRG neurons): blocked

Compound: NH2-FRNELAYPVLTFGQL-COOH (H-FRNELAYPVLTFGQL-OH) [blocking peptide]
- effect on miR-711-induced pruritus (mice; 15 μL intradermal, mmu-miR-711 1 mM, 10 μL): prevented
- effect on acute itch induced by compound 48/80 (mice; 15 μL, 48/80 50 μg/10 μL): no effect
- effect on acute itch induced by chloroquine (mice; 15 μL, CQ 100 μg/10 μL): no effect

Compound: miR-711: mmu-miR-711: gggacccggggagagauguaag (SEQ ID NO: 5) (GGGACCCGGGGAGAGAUGUAAG; chemistry not given here)
- inward currents (TRPV1): failed to trigger inward currents

— patent US20210283163A1, “COMPOSITIONS AND METHODS FOR THE TREATMENT OF ACUTE AND CHRONIC PRURITIS” (Duke University, priority 2018, published 2021)
